In US20040019027A1, “Method of treating cerebrotendinous xanthomatosis” (priority 2002, published 2004):

Experiments:
[1] = test system: PXR target genes cyp3a11, cyp2c, and oatp2; experiment: Northern analysis of PXR target genes in primary mouse hepatocytes; assay type: cell-based; settings: 10 μM, 24 h, FIG. 5
Method: Primary mouse hepatocytes were treated with compounds (10 μM), and Northern analysis was performed using the probes as described in Example III.
Additionally, a Northern blot analysis of PXR target genes can be used to determine whether or not a molecule or compound is a PXR agonist. […] In this approach, hepatocytes are isolated, cultured in vitro, and exposed to a molecule or compound suspected to be a PXR agonist. Total RNA of the hepatocytes is isolated and subject to Northern blot analysis with probes of PXR target genes' fragments. The PXR target genes have transcriptional regulatory regions that interact with the DNA binding domain of a PXR. When a PXR agonist interacts or binds to the ligand binding domain of a PXR, the DNA binding domain of a PXR interacts with the transcriptional regulatory region of the target genes and activates the expression of the target genes. Consequently, an enhanced expression of target genes is observed in the Northern blot analysis. Commonly used target genes' fragments include cyp3a11, nucleotides from #1,065 to #1,569 of GenBank accession no. X60452; cyp2c, nucleotides from #787 to #1,193 of GenBank accession no. AK008580; and oatp2, nucleotides 2,124-2,486 of GenBank accession no. NM_021471. gapdh, nucleotides from #590 to #1,089 of GenBank accession no. NM_008094, is used as a control since gapdh is not regulated by the activation of a PXR. […]

mouse PXR = target: T1, mouse PXR (Mus musculus, UniProt O54915); experiment: GAL-mouse PXR luciferase reporter gene assay in transfected CV-1 cells; assay type: cell-based; settings: 10 μM; CV-1 cells; FIG. 3(a), FIG. 8(a)
T1 sequence (O54915 104-431): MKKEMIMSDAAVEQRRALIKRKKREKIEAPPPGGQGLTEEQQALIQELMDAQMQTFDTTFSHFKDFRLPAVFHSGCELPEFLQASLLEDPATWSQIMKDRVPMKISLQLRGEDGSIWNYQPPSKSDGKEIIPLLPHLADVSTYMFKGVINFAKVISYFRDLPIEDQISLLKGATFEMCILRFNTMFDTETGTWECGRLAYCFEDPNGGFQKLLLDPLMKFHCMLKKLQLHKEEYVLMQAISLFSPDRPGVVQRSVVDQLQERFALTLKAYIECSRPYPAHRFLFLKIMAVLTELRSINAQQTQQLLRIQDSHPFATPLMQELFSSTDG
Method: CV-1 cells were transiently transfected with a GAL-mouse PXR expression vector, a GAL4 reporter construct, and a β-galactosidase vector as an internal control. Where noted, the bile acid transporter NTCP was added to the transfection to promote the transport of membrane-impermeable bile acids. Transfected cells were exposed to the indicated compounds (10 μM each), and fold activation was determined using luciferase and β-galactosidase enzyme activity assays. […] The transfected CV-1 cells were treated with multiple concentrations of each sterol. Error bars in this figure and subsequent figures represent the standard error of the mean (SEM) from representative experiments.
It is questioned whether β-cholestane-3α, 7α, 12α-triol (Triol) levels were elevated in whole liver extracts from CYP27 −/− mice. To show the level of 5β-cholestane-3α, 7α, 12α-triol in mouse liver extract, wild-type or CYP27 −/−mouse liver tissue (0.5 g) was extracted with 7.5 ml of ethyl acetate/methanol (2:1, vol/vol) along with 5β-cholestane-3β,5α,6β-triol (25 μg) as an internal control for extraction efficiency. […] The extraction was repeated three times, and the organic fraction was pooled and evaporated. To remove the vast excess of cholesterol that interferes with subsequent gas chromatography-mass spectroscopy analysis, the evaporated residue was dissolved in 0.5 ml of chloroform/acetone (35:25, vol/vol) and applied to a Bond Elut SI cartridge (Varian, 500 mg). Cholesterol was removed by washing with 6 ml of chloroform/acetone (35:25, vol/vol), and sterols were eluted with 7 ml of chloroform/acetone/methanol (35:25:20, vol/vol/vol). The sterol fraction was evaporated and dissolved in acetonitrile, and a portion was silylated with N,O-bis(trimethylsilyl)-trifluoroacetamide containing 1% trimethylchlorosilane (Pierce). The silylated material was analyzed by using a Shimadzu model GC-17A gas chromatograph with a QP5000 mass spectral detector and a Hewlett-Packard Ultra 2 (cross-linked-siloxane) column. The injector port was kept at 250° C., interface temperature was kept at 280° C., and oven temperature was kept at 50° C. followed by a gradient of 30° C. min^−1 up to 300° C. The electron impact ionization source was at 70 eV. 5β-cholestane-3α, 7α, 12α-triol levels were determined by comparison to a standard curve. For transfection studies, the sterol fraction was dissolved in DMSO and added to the cell-culture media. containing DMEM with 10% delipidated FBS.

Structure (SMILES): CC(=O)[C@H]1[C@H](C#N)C[C@H]2[C@@H]3CC=C4C[C@@H](O)CC[C@]4(C)[C@H]3CC[C@@]21C [PCN, pregnenolone-16α-carbonitrile]
- induction of PXR target genes cyp3a11, cyp2c, oatp2 (in words) [1]: activated expression of the PXR target genes cyp3a11, cyp2c, and oatp2
- activation of GAL-mouse PXR (in words) (mouse PXR): very effective agonist
